Laboratory results: US20080027023A1, “Antiproliferative Compositions Comprising Aryl Substituted Xylopyranoside Derivatives” (priority 2004, published 2008)

Columns and labels:
[1] = test system: cells; experiment: Uptake of xyloside when added to cells; type: cell-based
Excerpt: Referring to FIG. 4, the results of treating rat C6 glioma cells with peracetylated Gal-4-Xyl-2-Nap-6-OH are shown. […] The reason for this difference is that peracetylated Gal-4-Xyl-2-Nap-6-OH is deacetylated by non-specific esterases after uptake into cells, whereby the resulting non-acetylated Gal-4-Xyl-2-Nap-6-OH remains trapped inside the cell resulting in a much higher local concentration. Accordingly, non-acetylated Gal-4-Xyl-2-Nap-6-OH is not taken up when added to cells.

[2] = after uptake by DFMO-treated cells; cited from earlier work
[3] = test system: rat C6 glioma cells; experiment: Cellular growth assay (crystal violet, A600), rat C6 glioma cells; type: cell-based; settings: for growth-inhibitory effect compared to untreated cells (control): FIG. 1A; for effect on cell growth: FIG. 4; for inhibits growth: FIG. 1B
Excerpt: (§1) Cells were obtained from American type culture collection (ATCC, Rockville, Md.). Regular cell culture media, L-glutamine, penicillin-streptomycin, trypsin, and donor calf serum were obtained from Life Technologies. Dulbeccos Modified Earles Medium, medium 199 and Ham's F-12 medium were purchased from Sigma, difluoromethylornithine (DFMO) was from ILEX Oncology, San Antonio, Tex. Epidermal growth factor was purchased from Genzyme, Cambridge, Mass. and crystal violet from Merck, Germany.
(§2) Cells were cultured as monolayers in Dulbeccos Modified Earles Medium (DMEM) supplemented with 10% (v/v) fetal bovine serum, 2 mM L-glutamine, penicillin (100 U/mL) and streptomycin (100 μg/mL) in an incubator with humidified atmosphere and 5% CO2 at 37° C.
(§3) The growth assay procedure has been described elsewhere (Mani et al., 1998, Cancer Res. 58: 1099-1104). Cells were seeded into 96-well microculture plates at 3000 cells/well in DMEM supplemented with insulin (10 ng/mL), transferrin (25 ng/mL) and 10% fetal calf serum. After 4 h of plating the cells were placed in serum-free Ham's F-12 medium supplemented with insulin (10 ng/mL) and transferrin (25 ng/mL) for an additional 24 h. […] In some experiments cells were pre-treated with DFMO to up-regulate spermine uptake (Belting et al., 2003, J. Biol. Chem. 278: 47181-47189). Controls without growth factor as well as solvent (DMSO) controls were included. The total time of exposure to the various agents was 5 days. Cells were fixed in 1% glutaraldehyde dissolved in Hanks balanced salt solution (NaCl 80 g/L, KCl 4 g/l, glucose 10 g/L, KH2PO4 600 mg/L, NaHPO4 475 mg/L) for 15 min, then cell nuclei were stained with 0.1% crystal violet. After washing and cell lysis for 24 h in Triton X-100, the amount of bound dye was measured at A600 in a microplate photometer (Titertek multiscan). The results are presented as the difference between A600 obtained after 5 days and that obtained immediately after seeding of the cells (t=0).

[4] = test system: rat C6 glioma cells implanted subcutaneously; experiment: Subcutaneous C6 glioma tumors in SCID mice; type: in vivo
Experimental: (§4) Treatment with xyloside was daily contralateral subcutaneous injections (1.7 mM solution; 0.5 ml for mice, 5 ml for rats) for 2 weeks. DFMO (0.1% w/v) was administered via the drinking water.
(§5) Female SCIDnodCA mice (7-8 weeks old) or Fisher rats (12 week old) were kept under pathogen-free conditions in the animal barrier facility at the Biomedical Center, Lund University, according to the Swedish guidelines for humane treatment of laboratory animals. The experimental set-up was approved by the ethical committee for animal research in Malmö/Lund, Sweden. To generate tumors, rat C6 glioma cells or human bladder T24 carcinoma cells (1×10^6 cells in 200 μl PBS) were injected subcutaneously in the dorsal region of 7-8 week old mice (n=4-8) or intracerebrally in rats.
(§6) In the present studies, animals (n=8) received 1.7 mM Xyl-2-Nap-6-OH, i.e. a saturated solution, either ad libitum via the drinking water, or by daily injections either subcutaneously (0.5 ml for mice, 5 ml for rats) or intraperitoneally (0.5 ml) for a total period of up to 2 weeks. Controls received drinking water with no additives or daily injections with sterile water. Food and water intake and changes in body weight were monitored. The xyloside was administered either concurrent with or 3 weeks post-injection. In the latter case, the animals were randomly divided into control and treatment groups with no significant differences in tumor volume. The animals were sacrificed following 2-3 weeks of treatment, and tumor mass or volume was recorded.

[5] = test system: human bladder carcinoma T24 cells; experiment: Cellular growth assay, human bladder carcinoma T24 cells; type: cell-based; settings: for cytotoxic effect on T24 cells: 0.5 mM xyloside, FIG. 5A / FIG. 2
Excerpt: as §1, §2, §3

[6] = test system: normal human lung fibroblasts; experiment: Cellular growth assay, normal human lung fibroblasts; type: cell-based
Excerpt: as §1, §2
The growth assay procedure has been described elsewhere (Mani et al., 1998, Cancer Res. 58: 1099-1104). Cells were seeded into 96-well microculture plates at 3000 cells/well in DMEM supplemented with insulin (10 ng/mL), transferrin (25 ng/mL) and 10% fetal calf serum. After 4 h of plating the cells were placed in serum-free Ham's F-12 medium supplemented with insulin (10 ng/mL) and transferrin (25 ng/mL) for an additional 24 h. […] After washing and cell lysis for 24 h in Triton X-100, the amount of bound dye was measured at A600 in a microplate photometer (Titertek multiscan). […]

[7] = test system: HepG2 hepatoma cells; settings: Mani et al. Glycobiology 14: 387-397; cited from earlier work
[8] = test system: tumor cells located subcutaneously or orthotopically; experiment: Other animal experiments, tumor-bearing mice, various routes of administration; type: in vivo
Experimental: as §5, §6
Treatment with Xyl-2-Nap-6-OH reduce the average tumor load by 70-97% in mice receiving the compound concomitant with tumor cell inoculation as well as in mice with pre-formed tumors. […] Side-effects via inhibition of proteoglycan synthesis in cartilage and connective tissues is unlikely, as xyloside concentrations greater than 2 mM are required for their inhibition in vitro (Moses et al., 1999, Eur, J. Biochem. 26: 879-884).

[9] = test system: A549 cells; settings: Mani et al. Glycobiology 14: 387-397; cited from earlier work
[10] = test system: A549 cells; experiment: Growth inhibition of A549 cells; type: cell-based; settings: combination with DFMO and spermine-NONOate
[11] = test system: rat C6 glioma cells implanted intracerebrally; experiment: Intracerebral C6 glioma tumors in rats; type: in vivo
Experimental: as §4, §5
as §6, with “In the latter case, the animals were randomly divided into control and treatment groups with no significant differences in tumor volume.” left out

[12] = Saturated solution used for dosing; type: physicochemical; settings: drinking water / injection solution
Experimental: as §6

[13] = test system: SV40 virus infected fibroblasts; settings: Mani et al. Glycobiology 14: 387-397; cited from earlier work
[14] = test system: HepG2 hepatoma cells; experiment: Growth inhibition of HepG2 hepatoma cells; type: cell-based; settings: combination with DFMO and spermine-NONOate
[15] = test system: SV40 virus infected fibroblasts; experiment: Growth inhibition of SV40 virus infected fibroblasts; type: cell-based; settings: combination with DFMO and spermine-NONOate

**Q.** With `OC[C@H]1O[C@@H](O[C@@H]2CO[C@@H](Oc3ccc4cc(O)ccc4c3)[C@H](O)[C@H]2O)[C@H](O)[C@@H](O)[C@H]1O` [Gal-4-Xyl-2-Nap-6-OH, 2-(6-hydroxynaphthyl)-4-O-(β-D-galactopyranosyl)-β-D-xylopyranoside] as the molecule, how does the “uptake when added to cells” value [1] read?
**A.** not taken up

**Q.** For `NCCCNCCCCN(CCCN)/[N+]([O-])=N/O` [spermineNONOate, reference compound], which “half-life of intracellular NO release” value [2] is on record?
**A.** 4 h

**Q.** And the “growth-inhibitory effect compared to untreated cells (control)” value ([3]; 5 μM spermineNONOate alone)?
**A.** no significant growth-inhibitory effect

**Q.** With `NCCC[C@](N)(C(=O)O)C(F)F` [DFMO, α-difluoromethylornithine, reference compound] as the molecule, how does the “higher concentration of DFMO in the drinking water required for the same effect with DFMO alone” value ([4]; relative to 0.1% w/v DFMO given with Xyl-2-Nap-6-OH (83% reduction)) read?
**A.** 10-20 fold

**Q.** What about the “growth-inhibitory effect compared to untreated cells (control)” value ([3]; 5 mM DFMO alone) of the same molecule?
**A.** no significant growth-inhibitory effect

**Q.** For `CC(=O)Oc1ccc2cc(O[C@@H]3OC[C@@H](OC(C)=O)[C@H](OC(C)=O)[C@H]3OC(C)=O)ccc2c1` [peracetylated Xyl-2-Nap-6-OH], which “cytotoxic effect on T24 cells” value [5] is on record?
**A.** clear cytotoxic effect

**Q.** What about the “effect on growth of normal human fibroblasts” value ([6]; 0.5 mM xyloside, FIG. 5B) of the same molecule?
**A.** does not affect growth

**Q.** For `CC(=O)OC[C@H]1O[C@@H](O[C@@H]2CO[C@@H](Oc3ccc4cc(OC(C)=O)ccc4c3)[C@H](OC(C)=O)[C@H]2OC(C)=O)[C@H](OC(C)=O)[C@@H](OC(C)=O)[C@H]1OC(C)=O` [peracetylated Gal-4-Xyl-2-Nap-6-OH], which “effect on cell growth” value ([3]; 0.2 mM xyloside alone) is on record?
**A.** complete growth-arrest

**Q.** What about the “potency relative to Xyl-2-Nap-6-OH at the same concentrations” value ([3]; comparison of FIG. 4 with FIG. 1B) of the same molecule?
**A.** at least 5 fold

**Q.** What about the “effect on cell growth” value ([3]; xyloside in combination with 5 mM DFMO and 5 μM spermineNONOate) of the same molecule?
**A.** significant cytotoxic effect

**Q.** With `Oc1ccc2cc(OC3OCC(O)C(O)C3O)ccc2c1` (centres unmarked) [Xyl-2-Nap-6-OH] as the molecule, how does the growth inhibition [7] read?
**A.** selectively inhibits growth

**Q.** And the “reduction of average tumor load” value ([8]; mice, compound given concomitant with tumor cell inoculation or to pre-formed tumors)?
**A.** 70-97%

**Q.** And the “toxic side-effects in vivo” value ([8]; mouse, in vivo)?
**A.** lack of obvious toxic side-effects

**Q.** What about the “absorption and availability to tumor cells” value ([8]; various ways of administration including oral) of the same molecule?
**A.** adsorbed and made available to tumor cells

**Q.** And the “subcutaneous C6 glioma tumor weight reduced” value ([4]; SCID mice, daily contralateral s.c. injections of 1.7 mM solution, 0.5 ml, 2 weeks, FIG. 6A)?
**A.** 78%

**Q.** What about the tumor-load reduced ([4]; mice treated with xyloside plus DFMO 0.1% w/v via the drinking water, FIG. 6C) of the same molecule?
**A.** 83%

**Q.** What about the growth inhibition [9] of the same molecule?
**A.** selectively inhibits growth

**Q.** What about the “effect of xyloside with DFMO and spermine-NONOate” value (“effect of xyloside” below) [10] of the same molecule?
**A.** Synergistic cytotoxic effects

**Q.** What about the blood-brain barrier penetration ([11]; inferred from reduced intracerebral tumor volume in rats) of the same molecule?
**A.** can penetrate the blood-brain barrier

**Q.** And the tumor volume ([11]; rats, intracerebral C6 glioma, daily s.c. injections of 1.7 mM solution, 5 ml, 2 weeks, FIG. 6B)?
**A.** reduced

**Q.** And the “effect on cell growth” value ([5]; 0.2 mM xyloside alone, FIG. 2)?
**A.** marginally affected

**Q.** What about the “effect on cell growth” value ([5]; 0.2 mM xyloside and 5 mM DFMO with 2.5 5 μM spermineNONOate) of the same molecule?
**A.** insufficient

**Q.** And the “effect on cell growth” value ([5]; 0.2 mM xyloside combined with 5 mM DFMO and 5 μM spermineNONOate, FIG. 2)?
**A.** complete cell death

**Q.** And the “effect on cell growth” value ([5]; 0.5 mM xyloside alone, FIG. 2)?
**A.** completely growth-arrested

**Q.** And the “cytotoxic effect on T24 cells” value [5]?
**A.** marginally cytotoxic

**Q.** And the “concentration of saturated solution” value [12]?
**A.** 1.7 mM

**Q.** What about the growth inhibition [13] of the same molecule?
**A.** selectively inhibits growth

**Q.** And the “reduction of cell growth” value ([6]; 0.2 mM xyloside, 5 mM DFMO and 5 μM spermineNONOate, FIG. 3)?
**A.** 20%

**Q.** What about the inhibits growth ([3]; 0.5 mM xyloside alone) of the same molecule?
**A.** 65%

**Q.** What about the inhibits growth ([3]; 0.5 mM xyloside combined with 5 mM DFMO and 5 μM spermineNONOate) of the same molecule?
**A.** 93%

**Q.** What about the “effect of xyloside” value [14] of the same molecule?
**A.** Synergistic cytotoxic effects

**Q.** And the “effect of xyloside” value [15]?
**A.** Synergistic cytotoxic effects
